Data on 8 molecules can be found in ChEMBL document CHEMBL5356942, “MEK inhibitors in cancer treatment: structural insights, regulation, recent advances and future perspectives” (RSC Med Chem, 2023).

The IC50 is the midpoint of a concentration-inhibition curve. The term bioavailability denotes the share of a dose that reaches the circulation, judged against a reference dose that is usually intravenous. Low values mean little systemic uptake, high ones much systemic uptake. As a reminder, the EC50 is the concentration at which the effect is half-maximal. The CC50 is the concentration giving 50% cytotoxicity.

Bounds are passed on as bounds.

The test system of series [1] is SMMC-7721. Kind of series: Cytotoxicity against human SMMC-7721 cells assessed as reduction in cell growth incubated for 48 hrs by MTT assay. Type of series: functional, cell-based. As to conditions: SMMC-7721, 48 h. A general note: Formazan colour is commonly taken as a measure of viable cells.
The test system of the next series is Hep 3B2. Description: Cytotoxicity against human Hep3B cells assessed as reduction in cell viability incubated for 48 hrs by MTT assay. Type of series: functional, cell-based.
Series [2] can be described thus: Cytotoxicity against human QSG7701 cells assessed as inhibition of cell growth incubated for 48 hrs by MTT assay. Type of series: functional, cell-based. The conditions noted are these: QSG7701, 48 h.
Series [3] in a line: AUC (0 to t) in ICR mouse at 3 mg/kg, po administered via gavage measured after 24 hrs by LC-MS/MS analysis. As to conditions: in vivo. The arrangement: time 24 hrs, dose 3 mg/kg, route po. Type of series: ADME, organism-based.
A short description of series [4]: Oral bioavailability in ICR mouse at 3 mg/kg measured after 24 hrs by LC-MS/MS analysis. Type of series: ADME, organism-based. The conditions noted are these: in vivo.
Series [5] deals with Enterovirus A71. Description: Antiviral activity against human Enterovirus 71 BrCr infected in human RD cells assessed as reduction of virus induced cytopathic effect incubated for 48 hrs by MTS assay. Type of series: functional, organism-based. The conditions noted are these: Enterovirus A. (In general: Protection from cytopathic effect is a common read-out in antiviral testing.)

Another series deals with RD. Kind of series: Cytotoxicity against human RD cells assessed as reduction in cell viability incubated for 72 hrs by MTT assay. Type of series: functional.
A short description of series [6]: Therapeutic index, ratio of CC50 for HEK293 cells to EC50 for antiviral activity against human EV71 infected in HEK293 cells. Type of series: functional.
The next series relates to HEK293. Kind of series: Cytotoxicity against HEK293 cells assessed as reduction in cell viability measured after 66 hrs by MTT assay. Type of series: functional. The conditions noted are these: Homo sapiens.
The subject of series [7] is Enterovirus A71. Description: Antiviral activity against human EV71 infected in HEK293 cells assessed as reduction in viral replication at MOI of 1 incubated for 48 hrs by luciferase assay. Type of series: functional, organism-based. As to conditions: Enterovirus A, HEK293, 48 h.
Series [8] can be described thus: Therapeutic index, ratio of CC50 for RD cells to EC50 for antiviral activity against human EV71 infected in RD cells. Type of series: functional.
Series [9] has as its system HT-29. Kind of series: Antiproliferative activity against human HT-29 cells assessed as reduction in cell growth incubated for 24 hrs by MTT assay. The class given is functional, cell-based. As to conditions: HT-29, 24 h.
Another series has as its system Calu-6. Description: Antiproliferative activity against human Calu-6 cells assessed as reduction in cell growth incubated for 24 hrs by MTT assay. Type of series: functional, cell-based. As to conditions: Calu-6, 24 h.
In the next series the test system is COLO 205. Kind of series: Antiproliferative activity against human COLO 205 cells assessed as reduction in cell proliferation incubated for 24 hrs byMTS assay. Type of series: functional, cell-based. The conditions noted are these: COLO 205, 24 h.
For another series, the system named is A-431. Kind of series: Antiproliferative activity against human A-431 cells assessed as reduction in cell proliferation incubated for 24 hrs by MTT assay. Type of series: functional, cell-based. The conditions noted are these: A-431, 24 h.
Another series concerns A-375. Kind of series: Antiproliferative activity against human A375 cells assessed as reduction in cell growth incubated for 24 hrs by MTT assay. The class given is functional, cell-based. The conditions noted are these: A-375, 24 h.
In the next series the test system is MDA-MB-231. Kind of series: Cytotoxicity against human MDA-MB-231 cells assessed as reduction in cell viability incubated for 72 hrs by MTT assay. The class given is functional, cell-based. As to conditions: MDA-MB-231, 72 h.
Series [10] can be described thus: Cytotoxicity against human QSG7701 cells assessed as inhibition of cell growth incubated for 72 hrs by MTT assay. The class given is functional, cell-based. The conditions noted are these: QSG7701, 72 h.
The subject of the next series is HeLa. Description: Cytotoxicity against human HeLa cells assessed as reduction in cell viability incubated for 72 hrs by MTT assay. Type of series: functional, cell-based.
Series [11] relates to SMMC-7721. Kind of series: Cytotoxicity against human SMMC-7721 cells assessed as reduction in cell viability incubated for 72 hrs by MTT assay. The class given is functional, cell-based. As to conditions: SMMC-7721, 72 h.
The target of series [12] is Mitogen-activated protein kinase 1 (Homo sapiens, UniProt P28482). Description: Inhibition of ERK2 phosphorylation in human A375 cells.
Mitogen-activated protein kinase 1, sequence (P28482 whole entry): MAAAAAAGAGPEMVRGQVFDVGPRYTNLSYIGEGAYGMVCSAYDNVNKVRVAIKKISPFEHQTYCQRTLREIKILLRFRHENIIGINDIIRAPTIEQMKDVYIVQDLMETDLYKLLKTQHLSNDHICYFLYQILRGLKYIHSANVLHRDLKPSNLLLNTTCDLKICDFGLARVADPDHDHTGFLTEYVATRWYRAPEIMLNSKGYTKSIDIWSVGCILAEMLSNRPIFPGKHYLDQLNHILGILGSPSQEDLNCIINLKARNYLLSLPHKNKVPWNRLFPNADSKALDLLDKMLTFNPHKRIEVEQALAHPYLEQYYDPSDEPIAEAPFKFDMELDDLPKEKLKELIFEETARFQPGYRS
Series [13] relates to HT-29. Description: Cytotoxicity against human HT-29 cells assessed as reduction in cell viability incubated for 24 hrs in dark by MTT assay. The class given is functional, cell-based. As to conditions: HT-29, 24 h.
The next series relates to MCF7. Kind of series: Cytotoxicity against human MCF7 cells assessed as reduction in cell viability incubated for 24 hrs by MTT assay. Type of series: functional, cell-based. The conditions noted are these: MCF7, 24 h.
The next series deals with B16. Description: Cytotoxicity against mouse B16 cells assessed as reduction in cell viability incubated for 24 hrs by MTT assay. Type of series: functional, cell-based. The conditions noted are these: B16, 24 h.
Series [14] is described as follows: Inhibition of ERK phosphorylation in human A-431 cells at 1 to 10 uM incubated for 24 hrs by Western blot analysis. As to conditions: A-431, 24 h. The class given is cell-based. On the technique in general: In western blotting, separated proteins are transferred to a membrane and probed.

Take `CCOc1ccc2c(c1)c1c(n2CCN2CCNCC2)-c2cc(C(C)C)ccc2[C@@]2(C)CCC[C@@](C)(C(=O)OC)C12` (stereo not given in full): the concentration for half-maximal inhibition (IC50) with SMMC-7721 [1] was 1.39 µM; in the series on Hep 3B2, 0.73 µM; in series [2], 12.5 µM.

As for `Cc1cc(I)ccc1Nc1c(C(=O)NOCCO)cc2ocnc2c1F`, in series [3], the AUCt is 337 ng·h/mL. In [4], the bioavailability was 28%.

On to `CCc1c(Cc2ccc(F)cc2)c(=O)oc2cc(OC(=O)N(C)C)ccc12`, for which the half-maximal effective concentration (EC50) came out at 10 µM in the series on Enterovirus A71 [5] and 19.4 µM in the series on Enterovirus A71 [7]. Further, the values for the CC50 in the series with RD and in the series with HEK293 were 72.9 µM and 65.3 µM, respectively. Besides, the “Ratio CC50/EC50” value in series [6] amounted to 3.37; in series [8], 7.29.

For the molecule `O=C(NOCCO)c1cc2ocnc2c(F)c1Nc1ccc(F)cc1F`, the IC50 in the series on HT-29 [9] was 0.0029 µM; with Calu-6 it was 0.169 µM; in the series with COLO 205, 0.0057 µM; in the series with A-431, > 3 µM; with A-375, 0.0043 µM.

As to `CC(=O)NNC(=O)[C@]12CC[C@@H](C)[C@H](C)C1C1=CCC3[C@@]4(C)Cc5cc6cc(Cl)ccc6cc5C(C)(C)C4CC[C@@]3(C)[C@]1(C)CC2` (stereo not given in full), the IC50 in the series with MDA-MB-231 was 0.12 µM; in series [10], 10.8 µM; in the series on HeLa, 0.08 µM; with SMMC-7721 [11] it was 0.34 µM.

As for `CC(=O)COC[C@H](O)CONC(=O)c1ccc(F)c(F)c1Nc1ccc(F)cc1F`, the half-inhibitory concentration (IC50) in [12] came out at 0.018 µM.

For the molecule `N#Cc1c(-c2ccccc2Br)c(N2CCOCC2)n(-c2ccc(Cl)cc2Cl)c1N`, the IC50 in the series with HT-29 [13] is 1.47 µM; with MCF7 it was 1.35 µM; in the series with B16, 4.61 µM.

Regarding `Cn1c(=O)c(F)c(Nc2ccc(I)cc2F)c2c(=O)n(C[C@@H](O)CO)cnc21` [TAK-733], the concentration giving a half-maximal response (EC50) in series [14] turned out to be 0.00019 µM.
